Reference: ChEMBL document CHEMBL5050844 (2019)
One block for each molecule: values may come before it.

What was measured:
[1] = target: T1, E3 ubiquitin-protein ligase CBL-B (Homo sapiens, UniProt Q13191); assay: Inhibition of N-terminal Avi-tagged human CBL-B (36 to 427 residues) incubated with 60 nM Src kinase for 1.5 hrs followed by incubation with fluorescently labeled UbcH5B-Ub for 1 hr and measured by TR-FRET assay; type: single protein
[2] = target: T1, E3 ubiquitin-protein ligase CBL-B; assay: Binding affinity towards N-terminal biotinylated Avi-tagged human CBL-B (36 to 427 residues) measured by surface plasmon resonance assay
[3] = Induction of anti-CD3/CD28 antibodies-stimulated human T cell activation at 4 uM assessed fold increase in IL-2 secretion measured by ELISA assay; type: functional, T cell line
[4] = Induction of anti-CD3/CD28 antibodies-stimulated human T cell activation at 1 uM assessed fold increase in IL-2 secretion measured by ELISA assay; type: functional, T cell line
[5] = Induction of anti-CD3/CD28 antibodies-stimulated human T cell activation at 0.3 uM assessed fold increase in IL-2 secretion measured by ELISA assay; type: functional, T cell line
[6] = Induction of anti-CD3 antibodies-stimulated human T cell activation at 8 uM assessed fold increase in IL-2 secretion measured by ELISA assay; type: functional, T cell line
[7] = Induction of anti-CD3 antibodies-stimulated human T cell activation at 1 uM assessed fold increase in IL-2 secretion measured by ELISA assay; type: functional, T cell line
[8] = Induction of anti-CD3/CD28 antibodies-stimulated human T cell activation at 4 uM assessed fold increase in CD25 expression measured by ELISA assay; type: functional, T cell line
[9] = Induction of anti-CD3/CD28 antibodies-stimulated human T cell activation at 1 uM assessed fold increase in CD25 expression measured by ELISA assay; type: functional, T cell line
[10] = Induction of anti-CD3/CD28 antibodies-stimulated human T cell activation at 0.3 uM assessed fold increase in CD25 expression measured by ELISA assay; type: functional, T cell line
[11] = Induction of anti-CD3 antibodies-stimulated human T cell activation at 8 uM assessed fold increase in CD25 expression measured by ELISA assay; type: functional, T cell line
[12] = Induction of anti-CD3 antibodies-stimulated human T cell activation at 1 uM assessed fold increase in CD25 expression measured by ELISA assay; type: functional, T cell line

T1 sequence (Q13191 whole entry, the tested form may be a part): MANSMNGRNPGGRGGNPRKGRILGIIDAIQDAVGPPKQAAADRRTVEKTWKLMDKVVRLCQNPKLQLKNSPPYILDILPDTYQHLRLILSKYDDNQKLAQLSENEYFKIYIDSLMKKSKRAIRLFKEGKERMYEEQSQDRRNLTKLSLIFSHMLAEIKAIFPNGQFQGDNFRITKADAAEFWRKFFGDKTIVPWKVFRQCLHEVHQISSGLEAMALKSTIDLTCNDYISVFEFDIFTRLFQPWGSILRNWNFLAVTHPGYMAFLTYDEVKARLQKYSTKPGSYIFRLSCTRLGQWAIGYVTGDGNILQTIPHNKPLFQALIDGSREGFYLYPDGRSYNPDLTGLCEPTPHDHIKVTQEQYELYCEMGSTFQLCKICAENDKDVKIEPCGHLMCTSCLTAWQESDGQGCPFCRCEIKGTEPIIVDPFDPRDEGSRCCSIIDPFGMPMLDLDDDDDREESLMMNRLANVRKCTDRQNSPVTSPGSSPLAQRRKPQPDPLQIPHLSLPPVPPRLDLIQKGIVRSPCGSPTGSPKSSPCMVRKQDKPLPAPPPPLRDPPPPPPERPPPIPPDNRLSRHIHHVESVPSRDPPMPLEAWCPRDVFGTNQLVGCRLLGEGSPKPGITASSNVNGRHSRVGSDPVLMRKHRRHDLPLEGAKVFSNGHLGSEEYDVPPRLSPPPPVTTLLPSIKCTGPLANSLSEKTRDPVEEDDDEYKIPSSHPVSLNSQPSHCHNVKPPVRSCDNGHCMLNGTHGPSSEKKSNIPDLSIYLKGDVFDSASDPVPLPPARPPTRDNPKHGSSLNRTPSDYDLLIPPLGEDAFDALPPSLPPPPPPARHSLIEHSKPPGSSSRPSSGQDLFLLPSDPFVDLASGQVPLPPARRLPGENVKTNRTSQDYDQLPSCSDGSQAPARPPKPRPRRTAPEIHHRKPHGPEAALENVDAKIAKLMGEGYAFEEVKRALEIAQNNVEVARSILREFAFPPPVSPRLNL

Structure (SMILES): C=CCC(Sc1nncn1C)c1cccc(NC(=O)c2ccc3ccccc3n2)c1 (stereo not given)
Kd [2]: > 10 µM

Structure (SMILES): C[C@H](Sc1nncn1C)c1cccc(NC(=O)c2cc(C(=O)N3CCCC3)ccn2)c1
Kd [2]: > 10 µM

Structure (SMILES): C[C@H](Sc1nncn1C)c1cccc(NC(=O)c2cccc(C(F)(F)F)c2)c1
Kd [2]: > 10 µM

Structure (SMILES): C[C@@H](Sc1nncn1C)c1ccnc(N2Cc3c(cccc3C(F)(F)F)C2=O)c1
Kd [2]: > 10 µM

Structure (SMILES): CC1=CC(C(=O)Nc2cccc([C@H](C)Sc3nncn3C)c2)=NC(=O)C1
IC50 [1]: ≥ 3 µM
Kd [2]: > 10 µM

Structure (SMILES): CC(Sc1nncn1C)c1ccc(F)c(NC(=O)c2ccc3ccccc3n2)c1 (stereo not given)
Kd [2]: > 10 µM

Structure (SMILES): C[C@@H](Sc1nncn1C)c1ccc(F)c(NC(=O)c2cccc(C(F)(F)F)n2)c1
Kd [2]: > 10 µM

Structure (SMILES): C[C@H](Sc1nncn1C)c1ccnc(NC(=O)c2cc(C(F)(F)F)c(Cl)cn2)c1
Kd [2]: > 10 µM

Structure (SMILES): C[C@@H](Sc1nncn1C)c1cccc(NC(=O)c2cc(C(=O)N3CCC(O)C3)ccn2)c1 (single isomer, unassigned)
Kd [2]: > 10 µM

Structure (SMILES): C[C@@H](Cc1nncn1C)c1ccnc(N2Cc3c(cccc3C(F)(F)F)C2=O)c1
Kd [2]: > 10 µM

Structure (SMILES): C[C@H](Cc1ncnn1C)c1cccc(N2Cc3c(cccc3C(F)(F)F)C2=O)c1
Kd [2]: > 10 µM

Structure (SMILES): Cc1cnc(C(=O)Nc2cccc([C@H](C)Sc3nncn3C)c2)cc1C(F)(F)F
Kd [2]: > 10 µM

Structure (SMILES): C[C@H](Sc1nncn1C)c1cccc(NC(=O)c2cc(C(=O)N3C[C@@H](O)C[C@@H]3C)ccn2)c1
Kd [2]: > 10 µM

Structure (SMILES): C[C@H](Cc1nnco1)c1cccc(N2Cc3c(cccc3C(F)(F)F)C2=O)c1
Kd [2]: > 10 µM

Structure (SMILES): C[C@H](Cc1nncn1C)c1cccc(NC(=O)c2cc(C(=O)N3CC(O)C(F)(F)C3)ccn2)c1 (stereo not given in full)
Kd [2]: > 10 µM
fold change (FC) [3]: 2.51
fold change (FC) [4]: <=1
fold change (FC) [5]: <=1
fold change (FC) [6]: >=0.201
fold change (FC) [7]: >=0.201
fold change (FC) [8]: 1.31
fold change (FC) [9]: <=1
fold change (FC) [10]: <=1
fold change (FC) [11]: 0.801
fold change (FC) [12]: 0.601

Structure (SMILES): CC(C)c1cccc(C(=O)Nc2cccc([C@H](C)Sc3nncn3C)c2)c1
Kd [2]: > 10 µM

Structure (SMILES): C=CCC(Sc1nncn1C)c1cccc(NC(=O)c2cc3ccccc3cn2)c1 (stereo not given)
Kd [2]: > 10 µM

Structure (SMILES): C[C@H](Sc1nncn1C)c1cccc(NC(=O)c2cc(C(=O)N3C[C@H](O)C[C@H]3C)ccn2)c1
Kd [2]: > 10 µM

Structure (SMILES): C[C@H](Sc1nncn1C)c1cccc(NC(=O)c2cc(C(=O)N3CCC[C@H](O)C3)ccn2)c1
Kd [2]: > 10 µM

Structure (SMILES): C[C@H](Sc1nncn1C)c1cccc(NC(=O)c2cc(C(=O)N3CCC[C@@H](O)C3)ccn2)c1
Kd [2]: > 10 µM

Structure (SMILES): COc1c(C(=O)Nc2cccc([C@H](C)Sc3nncn3C)c2)cccc1C(F)(F)F
Kd [2]: > 10 µM

Structure (SMILES): C[C@H](Sc1nncn1C)c1cccc(NC(=O)c2cc3cc(OCC(=O)O)ccc3cn2)c1
Kd [2]: > 10 µM

The next lines start with results.

IC50 [1]: < 0.1 µM
Kd [2]: < 0.1 µM
Structure (SMILES): C[C@H](Cc1nncn1C)c1cccc(N2Cc3c(cc(CN4CC(O)C(F)(F)C4)cc3C(F)(F)F)C2=O)c1 (stereo not given in full)
fold change (FC) [3]: >=7.5
fold change (FC) [4]: 5
fold change (FC) [5]: 2.51
fold change (FC) [6]: >=0.201
fold change (FC) [7]: 0.101
fold change (FC) [8]: 1.31
fold change (FC) [9]: 1.31
fold change (FC) [10]: 1.01
fold change (FC) [11]: >=1.001
fold change (FC) [12]: >=1.001

IC50 [1]: < 0.1 µM
Kd [2]: < 0.1 µM
Structure (SMILES): Cn1cnnc1CC1(c2cccc(NC(=O)c3cc(Cn4ccnn4)nc(C4CC4)n3)c2)COC1
fold change (FC) [4]: 2.51
fold change (FC) [5]: 1.01
fold change (FC) [7]: 0.101
fold change (FC) [9]: 1.31
fold change (FC) [10]: 1.01
fold change (FC) [12]: 0.801

IC50 [1]: < 0.1 µM
Kd [2]: < 0.1 µM
Structure (SMILES): Cc1[nH]ncc1-c1cc2c(c(C(F)(F)F)c1)CN(c1cccc([C@H](C)Cc3nncn3C)c1)C2=O
fold change (FC) [3]: >=7.5
fold change (FC) [4]: 5
fold change (FC) [5]: 2.51
fold change (FC) [6]: >=0.201
fold change (FC) [7]: 0.151
fold change (FC) [8]: 1.51
fold change (FC) [9]: 1.51
fold change (FC) [10]: 1.31
fold change (FC) [11]: >=1.001
fold change (FC) [12]: 0.801

IC50 [1]: < 0.1 µM
Kd [2]: < 0.1 µM
Structure (SMILES): CC1C=NN=C1C[C@@H](C)c1cccc(N2Cc3c(cc(C(=O)N4C[C@@H](O)C[C@H]4C)cc3C(F)(F)F)C2=O)c1 (stereo not given in full)
fold change (FC) [3]: >=7.5
fold change (FC) [4]: 2.51
fold change (FC) [5]: 1.01
fold change (FC) [6]: >=0.201
fold change (FC) [7]: 0.151
fold change (FC) [8]: 1.31
fold change (FC) [9]: 1.01
fold change (FC) [10]: 1.01
fold change (FC) [11]: >=1.001
fold change (FC) [12]: >=1.001

Kd [2]: < 0.1 µM
Structure (SMILES): Cn1cnnc1C(F)(F)[C@](C)(F)c1cccc(N2Cc3c(cc(CN4CC(F)C4)cc3C(F)(F)F)C2=O)c1
fold change (FC) [3]: >=7.5
fold change (FC) [4]: 5
fold change (FC) [5]: 1.01
fold change (FC) [6]: >=0.201
fold change (FC) [7]: 0.101
fold change (FC) [8]: 1.31
fold change (FC) [9]: 1.01
fold change (FC) [10]: 1.01
fold change (FC) [11]: >=1.001
fold change (FC) [12]: 0.801

Kd [2]: > 10 µM
Structure (SMILES): C[C@H](Sc1nncn1C)c1cccc(NC(=O)c2cc(NS(=O)(=O)CCO)ccn2)c1

Kd [2]: < 0.1 µM
Structure (SMILES): Cc1cc(C(=O)Nc2cccc([C@@](C)(F)C(F)(F)c3nncn3C)c2)nc(C2CC2)n1
fold change (FC) [3]: >=7.5
fold change (FC) [4]: 2.51
fold change (FC) [5]: 1.01
fold change (FC) [6]: >=0.201
fold change (FC) [7]: 0.101
fold change (FC) [8]: 1.31
fold change (FC) [9]: 1.31
fold change (FC) [10]: 1.01
fold change (FC) [11]: >=1.001
fold change (FC) [12]: 0.801

IC50 [1]: < 0.1 µM
Kd [2]: < 0.1 µM
Structure (SMILES): C[C@H](Cc1nncn1C)c1cccc(N2Cc3c(cc(CN4CC[C@H](O)C4)cc3C(F)(F)F)C2=O)c1

IC50 [1]: ≥ 3 µM
Kd [2]: ≥ 3 µM
Structure (SMILES): CCn1cnnc1C[C@H](C)c1cccc(NC(=O)c2cc(S(C)(=O)=O)cc(C3CC3)n2)c1

IC50 [1]: < 0.1 µM
Kd [2]: < 0.1 µM
Structure (SMILES): C[C@H](c1cc2c(c(C(F)(F)F)c1)CN(c1cccc(C3(C(F)(F)c4nncn4C)COC3)c1)C2=O)N1CC[C@H](F)C1
fold change (FC) [4]: >=7.5
fold change (FC) [5]: >=7.5
fold change (FC) [7]: >=0.201
fold change (FC) [9]: >=1.76
fold change (FC) [10]: >=1.76
fold change (FC) [12]: >=1.001

IC50 [1]: < 0.1 µM
Kd [2]: < 0.1 µM
Structure (SMILES): Cn1cnnc1CC1(c2cccc(N3Cc4c(cc(CN5CC[C@H](F)C5)cc4C4CC4)C3=O)c2)COC1
fold change (FC) [4]: >=7.5
fold change (FC) [5]: >=7.5
fold change (FC) [7]: 0.151
fold change (FC) [9]: 1.31
fold change (FC) [10]: 1.31
fold change (FC) [12]: >=1.001

Kd [2]: < 0.1 µM
Structure (SMILES): CC(c1cccc(N2Cc3c(cccc3C(F)(F)F)C2=O)c1)C(F)(F)c1nncn1C (stereo not given)

Kd [2]: < 0.1 µM
Structure (SMILES): CC(O)C1CN(C(=O)c2ccnc(C(=O)Nc3cccc([C@H](C)Cc4nncn4C)c3)c2)C1 (stereo not given in full)

IC50 [1]: < 0.1 µM
Kd [2]: < 0.1 µM
Structure (SMILES): C[C@H](c1cc2c(c(C(F)(F)F)c1)CN(c1cccc(C3([C@@H](F)c4nncn4C)COC3)c1)C2=O)N1CCC2(CC2)C1
fold change (FC) [4]: >=7.5
fold change (FC) [5]: >=7.5
fold change (FC) [7]: >=0.201
fold change (FC) [9]: >=1.76
fold change (FC) [10]: >=1.76
fold change (FC) [12]: >=1.001
